Source: patent US7429596B2, “1H-pyrrolo [2,3-D] pyrimidine derivatives and methods of use thereof” (The Regents of the University of California, priority 2003, dated 2008)
Changes are numbered by the printed parent chain. “And” between values parts separate entries of the source, which are not always exact repeats. Equal values may be shown once. “Also recorded” adds a separate entry of the source. Read-outs that look alike come from different tables or passages of the source.

Legend:
[1] = target: T1, carbonyl reductase 1 (CBR1) (Homo sapiens, UniProt P16152); experiment: CBR1 inhibition: menadione reduction, NADPH absorbance at 340 nm; type: biochemical; parameters: 6-His (N); made in house; host or cells: E. coli
T1 sequence (P16152 1-277): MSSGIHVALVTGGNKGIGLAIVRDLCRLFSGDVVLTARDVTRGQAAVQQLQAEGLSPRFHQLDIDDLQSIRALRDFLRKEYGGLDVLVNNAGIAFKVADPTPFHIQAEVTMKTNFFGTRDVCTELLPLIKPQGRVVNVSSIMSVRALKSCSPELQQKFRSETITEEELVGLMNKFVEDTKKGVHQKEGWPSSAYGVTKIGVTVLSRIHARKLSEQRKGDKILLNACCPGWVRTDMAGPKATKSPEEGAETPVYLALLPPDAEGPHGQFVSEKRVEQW
Experimental: CBR was expressed in E. coli and purified using glutathione beads; CBR has a naturally occurring. glutathione binding site. An N-terminal 6-His tagged protein was prepared to allow purification by metal affinity. Our CBR assay employs the synthetic substrate Menadione (2-methyl-1,4-naphthoquinone). Reaction progress is monitored by the decrease in NADPH-absorbance at 340 nm. Saturating concentrations of Menadione with variable concentrations of NADPH are employed in order to ascertain KI values.

c-Fyn-wt = c-Fyn-wt (Homo sapiens, UniProt P06241); experiment: Inhibition of Src family kinase Fyn; type: biochemical
Sequence of c-Fyn-wt (P06241 whole entry): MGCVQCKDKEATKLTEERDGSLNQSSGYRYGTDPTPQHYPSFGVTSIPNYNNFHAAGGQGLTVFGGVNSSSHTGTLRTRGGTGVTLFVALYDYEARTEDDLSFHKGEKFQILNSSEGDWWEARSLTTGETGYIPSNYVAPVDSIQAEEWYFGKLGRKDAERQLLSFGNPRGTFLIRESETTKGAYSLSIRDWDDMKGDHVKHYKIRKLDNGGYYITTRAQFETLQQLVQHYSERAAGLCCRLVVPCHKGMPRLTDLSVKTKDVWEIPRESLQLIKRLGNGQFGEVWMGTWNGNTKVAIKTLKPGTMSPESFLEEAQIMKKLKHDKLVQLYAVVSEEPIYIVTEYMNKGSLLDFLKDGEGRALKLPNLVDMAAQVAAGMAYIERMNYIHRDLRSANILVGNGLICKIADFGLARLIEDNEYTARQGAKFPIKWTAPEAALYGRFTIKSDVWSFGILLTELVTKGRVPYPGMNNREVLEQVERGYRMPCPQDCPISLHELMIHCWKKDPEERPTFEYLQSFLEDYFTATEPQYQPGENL
Experimental: Experiments were performed to determine whether AB129 was capable of inhibiting the Src family kinase, Fyn. […] Such a compound would serve as a test compound for determining the importance of dual inhibition of CBR1 and protein kinases.

[2] = tested on: A549 lung carcinoma cells; experiment: A549 cell killing / viability
[3] = target: T1, carbonyl reductase 1 (CBR1); experiment: Production of daunorubicinol from daunorubicin
Text: To independently confirm the ability of AB129 to inhibit CBR1 in A549 cells, an assay based on the role of CBR1 in attenuating the anti-cancer action of daunorubicin was employed.

i.v. serum half-life = type: in vivo; conditions: iv, read-out: i.v. serum half-life (t1/2)
Text: The data obtained from these cell culture assays and animal studies can be used in formulating a dosage range that is not toxic for use in human. The dosage of such compounds lies within a range of circulating concentrations that include the ED50 with little or no toxicity. The dosage can vary within this range depending upon the dosage form employed and the route of administration utilized. The exact formulation, route of administration and dosage can be chosen by the individual physician in view of the patient's condition. (See, e.g., Fingl et al., 1975, In: The Pharmacological Basis of Therapeutics, Ch. 1, p. 1). One of the advantages, among others, of using the AB129-type compounds and analogs described herein to treat disease, e.g., lung cancer or colon cancer is their lack of toxicity.

[4] = target: T2, N90V mutant of carbonyl reductase 1 (CBR1) (Homo sapiens, UniProt P16152, N90V); experiment: Sensitivity of N90V mutant CBR1 to inhibitor; type: biochemical; conditions: FIG. 30
T2 construct: made in house
T2 sequence (P16152 1-277 N90V): T1 sequence (P16152 1-277) with N90V
Text: To understand the basis for the potency of AB129 against CBR1, a computer algorithm was used for molecular docking of AB129 to an available crystal structure of porcine CBR1 to produce a model of the bound structure of AB129 (FIG. 24). This modeled co-structure was experimentally validated by site-directed mutagenesis of multiple amino acids in the proposed AB129 binding pocket (including a conserved Asn residue common to all SDR family members—FIGS. 25-27) and identification of AB129 resistant mutants of CBR1 (FIGS. 28-30). This binding model also potentially explains the importance of the hydroxyl moiety attached to the phenyl ring of AB129, as being critical for a H-bonding interaction with an active site Asn.

[5] = tested on: A549 lung carcinoma cells; experiment: Cell cycle of A549 cells
[6] = tested on: A549 lung carcinoma cells; conditions: human, 2 days, 0.4 μM
adenocarcinoma cells = experiment: Killing of adenocarcinoma cells in culture; type: cell-based
Text: In order to verify this assumption, the pyrazolopyrimidine RB2 and the analogous pyrrolopyrimidine RB5 were synthesized (FIG. 37). These compounds employ an R^2 isopropyl as opposed to the AB129 t-butyl because the Mitsunobu reaction used for RB5 synthesis is not amenable to t-butyl alkylation.

11β-HSD1 = 11β-HSD1 (Homo sapiens, UniProt P28845); conditions: Diederich et al. 2000; cited from earlier work
Sequence of 11β-HSD1 (P28845 whole entry): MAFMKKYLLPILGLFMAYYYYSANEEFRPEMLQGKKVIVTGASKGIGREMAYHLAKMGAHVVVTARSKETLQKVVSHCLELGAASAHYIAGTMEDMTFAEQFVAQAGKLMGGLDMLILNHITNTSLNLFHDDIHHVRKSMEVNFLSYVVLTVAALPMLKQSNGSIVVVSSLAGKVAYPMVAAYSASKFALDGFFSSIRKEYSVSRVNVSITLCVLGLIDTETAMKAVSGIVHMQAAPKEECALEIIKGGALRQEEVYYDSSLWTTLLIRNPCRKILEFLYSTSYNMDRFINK

[7] = Table 1, read-out: IC50 anti-hCBR1
[8] = Table 1, read-out: IC50 anti-c-Fyn-wt

Row | IC50 [1, 7] | IC50 (c-Fyn-wt; [8]) | IC50 ([1]; read-out: anti-CBR IC50) | Structure (SMILES) | also measured
1 | > 20000 nM | 50 nM |  | CC(C)(C)n1nc(-c2ccc(N)cc2)c2c(N)ncnc21 [AB061] | cell killing in human lung cancer cell line A549 [2]: mild to severe cell killing
2 | 930 nM | 200 nM |  | CCOCCn1nc(-c2cccc(O)c2)c2c(N)ncnc21 [MT15] | 
3 | > 20000 nM | ~20000 nM |  | CC(C)(C)n1nc(Cc2ccc(O)cc2)c2c(N)ncnc21 [RB03] | 
4 | > 20000 nM | 120 nM |  | CC(C)(C)n1nc(Cc2ccccc2O)c2c(N)ncnc21 [RB04] | 
5 | 760 nM | 12 nM |  | CC(C)n1cc(-c2cccc(O)c2)c2c(N)ncnc21 [RB05, 3-(4-amino-7-isopropyl-7H-pyrrolo[2,3-d]pyrimidin-5-yl)-phenol] | killing of adenocarcinoma cells in culture (adenocarcinoma cells): kill adenocarcinoma cells in culture; CBR inhibition compared with AB129 [1]: comparable to AB129
6 | > 20000 nM |  |  | CNc1ncnc2c1c(-c1cccc(N)c1)cn2C(C)C [RB07, [5-(3-amino-phenyl)-7-isopropyl-7H-pyrrolo[2,3-d]pyrimidin-4-yl]-methyl-amine] | 
7 | > 20000 nM |  |  | CC(C)n1cc(-c2cccc(O)c2)c2c(N(Cc3ccccc3)Cc3ccccc3)ncnc21 [RB09, 3-(4-dibenzylamino-7-isopropyl-7H-pyrrolo[2,3-d]pyrimidin-5-yl)-phenol] | 
8 |  |  | 1150 nM | CNc1ncnc2c1c(-c1cccc(O)c1)cn2CCC(=O)OC(C)(C)C [RB10, tert-Butyl 3-(5-(3-hydroxyphenyl)-4-(methylamino)-4aH-pyrrolo[2,3-d]pyrimidin-7(7aH)-yl)propanoate] | 
9 |  |  | 220 nM | CNc1ncnc2c1c(-c1cc(O)cc(Br)c1)cn2C(C)C [SD1, 3-bromo-5-(7-isopropyl-4-methylamino-7H-pyrrolo[2,3-d]pyrimidin-5-yl)-phenol] | 
10 |  |  | 3040 nM | CNc1ncnc2c1c(-c1cc(C)cc(O)c1)cn2C(C)C [SD2, 3-(7-isopropyl-4-methylamino-7H-pyrrolo[2,3-d]pyrimidin-5-yl)-5-methyl-phenol] | 
11 |  |  | 416 nM | CNc1ncnc2c1c(-c1cc(O)cc(C(F)(F)F)c1)cn2C(C)C [SD4, 3-(7-Isopropyl-4-methylamino-7H-pyrrolo[2,3-d]pyrimidin-5-yl)-5-trifluoromethyl-phenol] | 
12 | 28 nM |  | 27 nM | CC(C)n1cc(-c2cc(O)cc(Br)c2)c2c(Cl)ncnc21 [SD5, 3-bromo-5-(4-chloro-7-isopropyl-7H-pyrrolo[2,3-d]pyrimidin-5-yl)-phenol] | 
13 |  |  | 67 nM | CC(C)n1cc(-c2cc(O)cc(C(F)(F)F)c2)c2c(Cl)ncnc21 [SD8, 3-(4-Chloro-7-isopropyl-7H-pyrrolo[2,3-d]pyrimidin-5-yl)-5-trifluoromethyl-phenol] | 

More lines, now with the values behind:

Row | Structure (SMILES) | IC50 [1, 7] | IC50 (c-Fyn-wt; [8]) | IC50 ([1]; read-out: anti-CBR IC50) | also measured
14 | CC(C)(C)n1nc(-c2ccccc2)c2c(N)ncnc21 [AB001] | > 20000 nM | 110 nM |  | 
15 | CC(C)(C)n1nc(-c2cccc(N)c2)c2c(N)ncnc21 [AB060] | > 20000 nM | 50 nM |  | cell killing in human lung cancer cell line A549 [2]: mild to severe cell killing
16 | CC(C)(C)n1nc(-c2cccc(O)c2)c2c(N)ncnc21 [AB129] | 790 nM | 8 nM |  | production of cardiotoxic metabolite daunorubicinol from daunorubicin [3]: able to block production; cell killing in human lung cancer cell line A549 [2]: mild to severe cell killing; also recorded: most potent A549 cell killing response; half-life (i.v. serum half-life): 120 to 150 min; sensitivity of N90V mutant CBR1 versus wild type CBR1 [4]: less sensitive; A549 cells in G2/M phase [5]: approximately 12%; IC50 ([1]; FIG. 5, read-out: IC50, CBR1 catalyzed reduction of menadione by NADPH): ~5000 nM; Ki ([1]; NADPH competitive): 400 nM and 300 to 400 nM; mode of inhibition of CBR1 ([1]; with respect to NADPH): pure NADPH competitive inhibitor; IC50 (c-Fyn-wt; read-out: anti-Fyn IC50): 10 nM; loss of viability of A549 cells [6]: 15%
17 | CC(C)(C)n1nc(-c2ccc(F)c(O)c2)c2c(N)ncnc21 [MS01] | 1000 nM | 3 nM |  | 
18 | CCOCCn1nc(-c2ccccc2)c2c(N)ncnc21 [MT13] | > 20000 nM | 5000 nM |  | 
19 | Cc1ccc(-c2nn(C(C)(C)C)c3ncnc(N)c23)cc1 [PP1, reference compound] |  |  |  | cell killing in human lung cancer cell line A549 [2]: not; A549 cells in G2/M phase [5]: approximately 5.6%; IC50 [1]: > 20000 nM; inhibition of CBR1 ([1]; at a concentration as high as 16 μM): did not inhibit; inhibition of CBR1 ([1]; in vitro assay, CBR1 expressed in bacteria): does not inhibit
20 | CC(C)(C)n1nc(Cc2cccc(O)c2)c2c(N)ncnc21 [RB01] | > 20000 nM | 1200 nM |  | 
21 | CC(C)n1nc(-c2cccc(O)c2)c2c(N)ncnc21 [RB02] | 1000 nM | 11 nM |  | killing of adenocarcinoma cells in culture (adenocarcinoma cells): kill adenocarcinoma cells in culture; CBR inhibition compared with AB129 [1]: comparable to AB129
22 | CNc1ncnc2c1c(-c1cccc(O)c1)cn2C(C)C [RB06] | 590 nM | 70000 nM |  | CBR inhibition compared with AB129 [1]: equipotent; fold less potent as an inhibitor of Fyn (c-Fyn-wt; predicted, versus AB129): > 100 fold
23 | CC(C)n1cc(-c2cccc(O)c2)c2c(NCc3ccccc3)ncnc21 [RB08, 3-(4-benzylamino-7-isopropyl-7H-pyrrolo[2,3-d]pyrimidin-5-yl)-phenol] |  |  | 4400 nM | IC50 (c-Fyn-wt; read-out: anti-Fyn IC50): 20000 nM
24 | CNc1ncnc2c1c(-c1cccc(O)c1)cn2CCC(=O)O [RB11, 3-(5-(3-hydroxyphenyl)-4-(methylamino)-4aH-pyrrolo[2,3-d]pyrimidin-7(7aH)-yl)propanoic acid] |  |  | 220 nM | 
25 | CNc1ncnc2c1c(-c1cc(O)cc(C(C)(C)C)c1)cn2C(C)C [SD3, 3-tert-Butyl-5-(7-isopropyl-4-methylamino-7H-pyrrolo[2,3-d]pyrimidin-5-yl)-phenol] |  |  | 7650 nM | 
26 | Cc1cc(O)cc(-c2cn(C(C)C)c3ncnc(Cl)c23)c1 [SD6, 3-(4-chloro-7-isopropyl-7H-pyrrolo[2,3-d]pyrimidin-5-yl)-5-methyl-phenol] |  |  | 193 nM | 
27 | CC(C)n1cc(-c2cc(O)cc(C(C)(C)C)c2)c2c(Cl)ncnc21 [SD7, 3-tert-butyl-5-(4-chloro-7-isopropyl-7H-pyrrolo[2,3-d]pyrimidin-5-yl)-phenol] |  |  | 376 nM | 
28 | COc1cccc2c1C(=O)c1c(O)c3c(c(O)c1C2=O)C[C@@](O)(C(C)=O)C[C@@H]3O[C@H]1C[C@H](N)[C@H](O)[C@H](C)O1 [daunorubicin, reference compound] |  |  |  | loss of viability of A549 cells ([2]; daunorubicin single agent, 0.8 μM): 15%
29 | CC1(C)[C@@H](O[C@H]2O[C@H](C(=O)O)[C@@H](O)[C@H](O)[C@H]2O[C@@H]2O[C@H](C(=O)O)[C@@H](O)[C@H](O)[C@H]2O)CC[C@]2(C)[C@H]3C(=O)C=C4[C@@H]5C[C@@](C)(C(=O)O)CC[C@]5(C)CC[C@@]4(C)[C@]3(C)CC[C@@H]12 [glycyrrhizic acid] |  |  |  | IC50 (11β-HSD1): 40 nM
